Series [1] can be described thus: Solubility by NMR method with imidazole as internal standard. The series is classed as physicochemical. An excerpt:
(§1) Figure 3 illustrates the two methods used to determine solubility. The first method was gravimetry which required a higher amount of analyte to reduce any error arising from possible co-crystalized compounds. This method is easy to realize without the need for high-tech equipment, and its result is also a reference for the other method performed by NMR spectroscopy. The NMR method required only a small quantity of the analyte and was more accurate as no co-crystalized compounds were counted in its homogeneous solution phase.
The NMR spectra used to determine the solubility were recorded with a known amount of imidazole as the internal standard.
^1H NMR spectra were recorded in DMSO-d6 or CDCl3 solution at room temperature, on a Varian Unity Inova 500 spectrometer (Bruker Corp. Oxford, UK) (500 and 125 MHz for ^1H NMR and APT-NMR spectra, respectively), with the residual solvent signal as the lock and imidazole as the internal standard (only for solubility determination). Chemical shifts (δ) and coupling constants (J) are given in ppm and Hz, respectively.

On the set-up of series [2]: method as in doi:10.1149/1945-7111/ab7550. The settings on record: water; disodium salts; cited from earlier work.
A further series is described as follows: Solubility by gravimetry. The series is classed as physicochemical. The settings on record: aqueous buffer, thermodynamic from solid, 1 M sulfuric acid, first isolated polymorph.
Text: as §1

[3] abbreviates: 1 M acid, counter ion PO3 3− (phosphate), aqueous buffer, thermodynamic from solid, 1 M acid, counter ion PO3 3− [sic] (phosphate), read-out: Solubility in 1 M acid, PO3 3−.
Setting [4] is: 1 M sulfuric acid, aqueous buffer, thermodynamic from solid, 1 M sulfuric acid, counter ion SO4 2−, final (more stable) polymorph, read-out: Solubility in 1 M acid, SO4 2−.

The values that follow come from PMC7956567, “Aqueous Solubility of Organic Compounds for Flow Battery Applications: Symmetry and Counter Ion Design to Avoid Low-Solubility Polymorphs” (Molecules, 2021).

Values after ≈ are worked out from the molar mass of the structure shown. Values joined by “and” are separate entries in the source; they are usually repeats but may differ in a detail not shown here. Identical values can stand only once. Counter-ions that a name gives are not always drawn.

Take “2,3-dimethyl-5-[(morpholin-4-yl)methyl]benzene-1,4-diol [MMHQ]”: the “Solubility in 1 M acid, ClO4−” value in series [1] (1 M acid, counter ion ClO4−) was 20 mM. The “Solubility in 1 M acid, Cl−” value in series [1] (1 M acid, counter ion Cl−, NMR method, validated by gravimetric analysis) was 0.07 ^1 M. In series [1] (1 M acid, counter ion PO3 3− [sic] (phosphate)), the “Solubility in 1 M acid, PO3 3−” value is listed as 0.48 M. Further, the “Solubility in 1 M acid, SO4 2−” value in series [1] (1 M sulfuric acid, counter ion SO4 2−, final (more stable) polymorph) is 480 mM.

Regarding `O=C1c2cccc(S(=O)(=O)[O-])c2C(=O)c2cccc(S(=O)(=O)[O-])c21.[Na+].[Na+]` [1,5-AQDSNa2, 9,10-dioxo-9,10-dihydroanthracene-1,5-disulfonic acid disodium salt], the Aqueous solubility (commonly how much of the substance goes into solution per volume) in series [2] is 70 mM.

With `O=C1c2ccc(S(=O)(=O)[O-])cc2C(=O)c2ccc(S(=O)(=O)[O-])cc21.[Na+].[Na+]` [2,6-AQDSNa2, 9,10-dioxo-9,10-dihydroanthracene-2,6-disulfonic acid disodium salt, reference compound], the solubility – broadly, how much of the substance goes into solution per volume – in series [1] (water, disodium salt, NMR method with imidazole as internal standard, read-out: Aqueous solubility) was found to be 40 mM. The Aqueous solubility entry in series [2] was “below 0.1 M”.

Consider `O=C1c2ccc(S(=O)(=O)O)cc2C(=O)c2cc(S(=O)(=O)O)ccc21` [2,7-AQDS disodium salt, 9,10-dioxo-9,10-dihydroanthracene-2,7-disulfonic acid], for which, in series [2], the Aqueous solubility was 580 mM and 740 mM.

`Oc1cc(CN2CCOCC2)c(O)cc1CN1CCOCC1` [DMHQ, 2,5-bis[(morpholin-4-yl)methyl]benzene-1,4-diol]: the solubility is 1700 mM (≈ 524 mg/mL) in the series “Solubility by gravimetry”; 10 mM (≈ 3.08 mg/mL) in series [1] (1 M acid, counter ion ClO4−, aqueous buffer, thermodynamic from solid, 1 M acid, counter ion ClO4−, read-out: Solubility in 1 M acid, ClO4−); 30 mM (≈ 9.25 mg/mL) in series [1] (1 M acid, counter ion Cl−, thermodynamic from solid, 1 M acid, counter ion Cl−, NMR method, validated by gravimetric analysis, read-out: Solubility in 1 M acid, Cl−); 530 mM (≈ 163 mg/mL) in series [1] (setting [3]); 80 mM (≈ 24.7 mg/mL) in series [1] (setting [4]); less than 100 mM in series [1] (1 M sulfuric acid, one year later, new polymorph, method not given, read-out: Solubility in 1 M sulfuric acid one year later).

Turning to `Cc1c(O)c(C)c(CN2CCOCC2)c(O)c1CN1CCOCC1` [asym-DDHQ, 2,6-dimethyl-3,5-bis[(morpholin-4-yl)methyl]benzene-1,4-diol], the solubility in series [1] (setting [3]) stood at 550 mM (≈ 185 mg/mL); in series [1] (setting [4]) it was 440 mM (≈ 148 mg/mL).

With `Cc1c(O)c(CN2CCOCC2)c(C)c(O)c1CN1CCOCC1` [sym-DDHQ, 2,5-dimethyl-3,6-bis[(morpholin-4-yl)methyl]benzene-1,4-diol], the solubility was found to be 400 mM (≈ 135 mg/mL) in series [1] (setting [3]); 60 mM (≈ 20.2 mg/mL) in series [1] (setting [4]); 240 mM (≈ 80.7 mg/mL) in series [1] (1 M sulfuric acid, aqueous buffer, thermodynamic from solid, 1 M sulfuric acid, freshly obtained product, first polymorph, NMR method, read-out: Solubility of first polymorph in 1 M sulfuric acid).
